According to US4426453A, “Derivatives of iodothyronine compounds and their use in an assay for the free iodothyronine compounds” (Amersham International Limited, priority 1980, dated 1984):
“Also recorded” adds a separate entry of the source. Values belong to the molecule of their own block, whether it stands above or below them.

Legend:
[1] = Stability in water / assay buffer; assay type: physicochemical; conditions: qualitative
TBG [2] = molecular target: T1, TBG (Homo sapiens, UniProt P05543); experiment: T4.EDTA binding strength to TBG relative to T4 (displacement of 125I-T4 tracer from TBG:anti-TBG binding reagent); parameters: 1 ml of resin stripped human serum; from tissue; host or cells: human serum (resin stripped); conditions: for binding to TBG (in words): qualitative
T1 sequence (P05543 21-415): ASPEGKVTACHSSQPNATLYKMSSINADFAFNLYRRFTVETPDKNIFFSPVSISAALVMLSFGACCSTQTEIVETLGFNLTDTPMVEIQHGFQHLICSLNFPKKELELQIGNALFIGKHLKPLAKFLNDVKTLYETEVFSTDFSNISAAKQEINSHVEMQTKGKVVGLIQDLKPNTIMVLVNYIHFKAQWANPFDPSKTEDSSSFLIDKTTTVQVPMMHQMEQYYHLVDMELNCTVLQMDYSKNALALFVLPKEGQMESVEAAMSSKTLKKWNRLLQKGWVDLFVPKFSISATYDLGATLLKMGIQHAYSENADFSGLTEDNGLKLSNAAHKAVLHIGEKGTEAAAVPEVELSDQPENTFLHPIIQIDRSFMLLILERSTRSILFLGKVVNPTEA
Experimental: (§1) Pre-precipitated antiserum (binding reagent) to either TBG or prealbumin is incubated with a serum source of TBG or prealbumin, so that the T4 binding protein is isolated on the binding reagent. Tracer ^125 I-T4 is added to the resulting complex and is thus purified. The displacement of the tracer ^125 I-T4, by varying concentrations of T4 and T4.EDTA, from the TBG or prealbumin, can then be studied. The results can be used to estimate the differences in binding affinity between T4 and T4.EDTA for the two T4 binding proteins.
15% Donkey anti-sheep in phosphate
2% TBG Antiserum buffer + 0.05% BSA
Equal quantities of the above solutions are mixed and rotated overnight at 4° so that the final concentrations in the binding reagent are 7.5% donkey anti-sheep, and 1% TBG antiserum. Centrifugation at 900 rpm, decantation and resuspension in fresh buffer are carried out twice to wash the reagent.
1 ml of resin stripped human serum and 20 ml of the above binding reagents are mixed for 1 hour at room temperature. Centrifugation, decantation and resuspension in fresh buffer (phosphate+0.05% BSA) are carried out twice.
Typically 10 ml of TBG:anti-TBG binding reagents, 28 ml of phosphate buffer+0.05% BSA, and 2 ml of ^125 I-T4 tracer solution (0.1 μCi high specific activity T4 per ml in phosphate buffer+0.05% BSA) are mixed for 1 hour at room temperature. Centrifugation, decantation and resuspension in fresh buffer (phosphate+0.05% BSA) are carried out twice. Once prepared the tracer T4:TBG:anti-TBG binding reagent is used immediately.
The stock solutions are diluted in phosphate buffer+0.005% BSA. […]
(§2) Thus the percentage bound of the tracer at different T4 and T4.EDTA concentrations, can be determined in the two systems.
(§3) Tracer percentage bound is plotted against T4 and T4.EDTA concentrations, and from these curves an estimate of the non-specific binding can be made. The data can then be re-calculated, using this blank correction, plotted, and the T4 and T4.EDTA concentrations corresponding to a range of tracer percentage bound values can be read off the curve. […]

[3] = test system: Antisera (having low T4 cross reactivity); experiment: Binding to antisera having low T4 cross reactivity; conditions: antisera with low T4 cross reactivity; compared with T3
TBG [4] = molecular target: T1, TBG; conditions: blood stream of human beings; cited from earlier work
TBPA = conditions: blood stream of human beings; cited from earlier work
Albumin = conditions: blood stream of human beings; cited from earlier work
T4 antiserum = experiment: Affinity with respect to T4 antiserum; assay type: binding
TBPA (prealbumin) = molecular target: T2, TBPA (prealbumin) (Homo sapiens, UniProt P02766); experiment: T4.EDTA binding strength to prealbumin (TBPA) relative to T4 (displacement of 125I-T4 tracer from TBPA:anti-TBPA binding reagent)
T2 construct: from tissue; host or cells: normal serum
Experimental: as §1
This is prepared as for the anti-TBG binding reagent except that equal volumes of 30% donkey anti-rabbit second antibody and 4% TBPA antiserum solutions were mixed to give final concentrations of 15% donkey anti-rabbit, and 2% anti-TBPA.
600 μl normal serum and 20 ml anti-TBPA binding reagent are mixed for 1 hour at room temperature. […]
as §2, §3

[5] = test system: solid phase T4 antibody (T4-specific antiserum on latex particles); experiment: Free-T4 assay using T4.EDTA tracer: standard curve; assay type: binding; conditions: 37° C., one hour
From the text: T4.EDTA was labelled with ^125 I by an exchange reaction using sodium iodide-^125 I and chloramine-T. The specific activity obtained was typically 500 millicuries per milligram, and was used as a working concentration of 0.13 microcuries per […] in a 60 millimolar phosphate buffer, pH 7.4, containing 0.9% sodium chloride, 0.9% bovine serum albumin and 0.1% sodium azide.
A solid phase antibody was used consisting of T4-specific antiserum bound on to micron sized latex particles such that the suspension contained 0.66 milligram of latex particles per milliliter and antibodies from 0.5 microliters of T4-specific antiserum per milligram of latex. The buffer was 10 millimolar phosphate, pH 7.4 containing 0.1% sodium azide.
A set of 6 human serum pools were prepared by standard techniques to contain free-T4 concentrations ranging from zero to approximately 10 nanograms per deciliter. These standards were calibrated with reference to an equilibrium dialysis free T4 assay.
The free T4 assay was set up in polystyrene assay tubes following this protocol:
100 μl serum standard or unknown serum sample
500 μl ^125 I-T4.EDTA tracer solution.
500 μl solid phase T4 antibody suspension.
The assay tubes were vortex mixed, and incubated at 37° C. in a water bath for one hour. The tubes were centrifuged at 1500 g for 20 minutes and the supernatant liquid decanted. The readioactivity of the precipitate was measured.

[6] = % of the affinity constant of T4, 37° C.

binding to TBG (in words) (TBG [2]): binds appreciably to TBG
SMILES: COC(=O)[C@H](Cc1cc(I)c(Oc2cc(I)c(O)c(I)c2)c(I)c1)NC(C)=O [N-Acetyl-thyroxine-methyl ester, N-acetyl-thyroxine-methyl ester, reference compound]
stability in water / usable time after dilution into the assay buffer [1]: only gives useful assay results within hours of dilution into the assay buffer

SMILES: O=C(O)CN(CCN(CC(=O)O)CC(=O)NC(Cc1cc(I)c(Oc2ccc(O)c(I)c2)c(I)c1)C(=O)O)CC(=O)O (stereo not shown) [T3.EDTA, 2-carboxy-6,9-dicarboxymethyl-1 3',5'di-iodo-4'(3"-iodo-4"-hydroxy)phenoxy phenyl 4-oxo-3,6,9-triazaundecan-11-oic acid]
binding to antisera relative to T3 [3]: equal, or better, binding than T3 itself

SMILES: N[C@@H](Cc1cc(I)c(Oc2cc(I)c(O)c(I)c2)c(I)c1)C(=O)O [T4, Thyroxine]
percentage of T4 bound to TBG (TBG [4]): approximately 70%
percentage of T4 bound to TBPA (TBPA): 20-25%
percentage of T4 bound to Albumin (Albumin): 5-10%

stability in water / usable time after dilution into the assay buffer [1]: stable in water
affinity constant for TBG relative to that of T4 (TBG [2]; [6]): 3.5%
affinity constant for TBPA relative to that of T4 (TBPA (prealbumin); [6]): 2.7%
binding to TBPA (in words) (TBPA (prealbumin); qualitative): binds only very weakly to TBG and TBPA
SMILES: O=C(O)CN(CCN(CC(=O)O)CC(=O)NC(Cc1cc(I)c(Oc2cc(I)c(O)c(I)c2)c(I)c1)C(=O)O)CC(=O)O (stereo not shown) [T4.EDTA, 1-{3',5'-di-iodo-4'(3",5"-di-iodo-4"-Hydroxyphenoxy)phenyl}2-carboxy-6,9-dicarboxymethyl-4-oxo-3,6,9-triazaundecan-11-oic acid]
affinity constant with respect to T4 antiserum relative to that of T4 (T4 antiserum; % of that of T4): 90.4%
binding to T4 antiserum (in words) (T4 antiserum; relative to T4): binds almost as strongly to T4 antiserum as does T4 itself
binding to TBG (in words) (TBG [2]): binds only very weakly to TBG; also recorded: shows no significant tendency to bind to TBG

SMILES: O=C(O)CN(CCN(CC(=O)O)CC(=O)NC(Cc1cc(I)c(Oc2cc(I)c(O)c(I)c2)c(I)c1)C(=O)O)CC(=O)O (stereo not shown) [^125 I-T4.EDTA]
% radioactivity in solid phase ([5]; free T4 0 ng/dl): 61.8%
% radioactivity in solid phase ([5]; free T4 0.45 ng/dl): 41.2%
% radioactivity in solid phase ([5]; free T4 0.95 ng/dl): 30.8%
% radioactivity in solid phase ([5]; free T4 1.9 ng/dl): 21.1%
% radioactivity in solid phase ([5]; free T4 4.9 ng/dl): 12.4%
% radioactivity in solid phase ([5]; free T4 9.0 ng/dl): 9.3%
